“Also recorded” adds a separate entry of the source.
What was measured:
[1] = system: IPF-derived human lung fibroblasts; assay: LAP adhesion assay, IPF-derived human lung fibroblasts (express αVβ1); format: cell-based; details: LAP-coated plates, cell index, xCELLigence; FIG. 1B
Procedure: Two latency associated peptide (LAP) adhesion binding assays were devised using primary human lung cells, including normal (healthy) human bronchial epithelial cells and human lung fibroblasts (healthy and IPF).
Human lung fibroblasts derived from normal and IPF lung tissue are known to express αVβ1 integrin. The IPF-derived human lung fibroblasts were prepared for the assay by dissociation with trypsin/EDTA, and were seeded at 20,000 cells per well on 96 well plates (ACEA Bioscience E-plate View, Acea Biosciences; San Diego, CA) previously coated with 5 µg/ml of recombinant human LAP (R&D Systems; Minneapolis, MN) and blocked with 4% bovine serum albumin. Cell index (electrical impedance) was measured to assess cell attachment/spreading every 3 minutes for 24 hours at 37° C./5% CO2 using the xCELLigence RTCA MP Instrument (Acea Biosciences; San Diego, CA). […] In the assay, the IPF-derived human lung fibroblasts were separately incubated with: the αVβ1-selective small molecule inhibitor; the selective antibody αVβ6 inhibitor, 3G9; and compound 5.

lung collagen = assay: Murine bleomycin model, collagen deposition; format: in vivo, mice (C57BL/6); details: bleomycin mice
Procedure: Mice (C57BL/6) were divided into healthy (n=15), vehicle-treated (n=15), and test article-treated (n=15 per dose) groups. Mice in the vehicle and test article-treated groups were administered 3 U/kg of bleomycin (Teva Pharmaceuticals; North Wales, PA) via oropharyngeal aspiration while under anesthesia on day 0. Healthy animals were administered water in a similar fashion. Starting on day 7, mice in the control group were administered PBS vehicle, 130 μL, by oral gavage, BID for 14 days. Also starting on day 7, mice in the test group were administered compound 5 in PBS by oral gavage, BID for 14 days, at relative dosages of 1×, 2.5× and 5×. […] From day 14 through day 21, 9 of the 15 mice were administered ^2H2O for labeling. All mice were sacrificed on day 21 and tissues were collected. Samples were prepared for analysis either directly from lung tissue, or by bronchoalveolar lavage, which washes out the bronchiolar and alveolar space with saline to produce a bronchoalveolar lavage fluid (BALF) in which 80-90% of cells are alveolar macrophages.
FIGS. 2F, 2G, and 2H show high resolution second harmonic generation images of fibrillar collagen (collagen type I and III) taken from formalin-fixed paraffin embedded lung tissue sections from a healthy mouse lung (2F), a vehicle-treated mouse lung (2G) and a test-article treated mouse lung (2H; 500 mg/kg BID). Color scale is indicative of collagen fiber density (red=most dense; blue=least dense).
FIG. 2I is a graph showing the percent total collagen area in the second harmonic generation mouse lung images. Large structural areas of collagen found similarly in healthy and fibrotic tissues (dense collagen fibers surrounding airways were excluded from this analysis to focus on interstitial fibrotic collagen). […] The 1×, 2.5×, and 5× dosages were at the same absolute values in mg/kg as in Example B2.

[2] = system: forced vital capacity (FVC); assay: Phase 2a trial in IPF, forced vital capacity; format: in vivo, human
Text: The exploratory endpoints of the trial measured changes in forced vital capacity (FVC), HRCT-based Quantitative Lung Fibrosis score (QLF), and selected biomarkers over 3 months of treatment.
FIG. 19 illustrates the change in FVC (forced vital capacity) from baseline to Week 12, MMRM Analysis—ITT Population. Change from baseline analyzed using a mixed model for repeated measures with terms for treatment group, SOC (Y/N), visit, baseline value, and treatment-by-visit interaction. An unstructured covariance (UN) structure was used.

αVβ6 = biological target: T1, αVβ6 (Homo sapiens, UniProt P06756+P18564); assay: αVβ6 target engagement in IPF lungs, [18F]FP-R01-MG-F2 PET/CT; format: in vivo; set-up: key to Vt: VT = volume of labeled tissue, from two-compartment kinetic model; key to Vs (corrected for non-displaceable binding, VND = 0.66): VT corrected for non-displaceable tracer binding (VND)
T1 construct: evaluating αVβ6 receptor occupancy in the lungs; from tissue; host or cells: lungs of living participants with IPF (in vivo PET/CT)
T1 sequence (P06756 31-889 limits assumed): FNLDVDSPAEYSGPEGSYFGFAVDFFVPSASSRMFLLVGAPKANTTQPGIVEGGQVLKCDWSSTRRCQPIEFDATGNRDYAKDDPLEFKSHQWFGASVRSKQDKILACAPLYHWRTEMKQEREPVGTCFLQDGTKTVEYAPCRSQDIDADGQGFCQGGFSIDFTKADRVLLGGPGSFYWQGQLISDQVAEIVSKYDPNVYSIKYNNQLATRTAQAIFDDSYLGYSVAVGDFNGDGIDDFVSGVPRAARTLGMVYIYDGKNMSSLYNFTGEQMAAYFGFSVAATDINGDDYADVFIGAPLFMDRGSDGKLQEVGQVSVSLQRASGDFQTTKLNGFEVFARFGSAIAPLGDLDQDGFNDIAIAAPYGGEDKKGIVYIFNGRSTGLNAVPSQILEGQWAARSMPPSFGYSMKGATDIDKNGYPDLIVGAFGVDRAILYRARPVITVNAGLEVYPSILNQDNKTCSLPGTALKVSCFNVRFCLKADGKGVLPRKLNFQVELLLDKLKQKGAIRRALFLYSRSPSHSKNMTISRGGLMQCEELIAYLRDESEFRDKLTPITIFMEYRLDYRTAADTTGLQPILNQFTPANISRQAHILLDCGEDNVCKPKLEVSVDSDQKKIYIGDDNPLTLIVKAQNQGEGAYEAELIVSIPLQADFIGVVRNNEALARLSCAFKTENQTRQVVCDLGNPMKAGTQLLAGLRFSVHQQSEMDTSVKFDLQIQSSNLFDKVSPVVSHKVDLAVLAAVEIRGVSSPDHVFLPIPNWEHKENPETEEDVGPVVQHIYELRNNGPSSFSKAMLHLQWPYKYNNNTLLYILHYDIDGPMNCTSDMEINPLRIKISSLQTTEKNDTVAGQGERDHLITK
T1 sequence (P06756 891-1048 partner limits assumed): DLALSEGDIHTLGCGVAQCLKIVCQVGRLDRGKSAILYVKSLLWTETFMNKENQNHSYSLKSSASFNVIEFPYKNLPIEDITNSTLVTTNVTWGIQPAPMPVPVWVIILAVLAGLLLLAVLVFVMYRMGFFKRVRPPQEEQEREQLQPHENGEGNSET
T1 sequence (P18564 22-788): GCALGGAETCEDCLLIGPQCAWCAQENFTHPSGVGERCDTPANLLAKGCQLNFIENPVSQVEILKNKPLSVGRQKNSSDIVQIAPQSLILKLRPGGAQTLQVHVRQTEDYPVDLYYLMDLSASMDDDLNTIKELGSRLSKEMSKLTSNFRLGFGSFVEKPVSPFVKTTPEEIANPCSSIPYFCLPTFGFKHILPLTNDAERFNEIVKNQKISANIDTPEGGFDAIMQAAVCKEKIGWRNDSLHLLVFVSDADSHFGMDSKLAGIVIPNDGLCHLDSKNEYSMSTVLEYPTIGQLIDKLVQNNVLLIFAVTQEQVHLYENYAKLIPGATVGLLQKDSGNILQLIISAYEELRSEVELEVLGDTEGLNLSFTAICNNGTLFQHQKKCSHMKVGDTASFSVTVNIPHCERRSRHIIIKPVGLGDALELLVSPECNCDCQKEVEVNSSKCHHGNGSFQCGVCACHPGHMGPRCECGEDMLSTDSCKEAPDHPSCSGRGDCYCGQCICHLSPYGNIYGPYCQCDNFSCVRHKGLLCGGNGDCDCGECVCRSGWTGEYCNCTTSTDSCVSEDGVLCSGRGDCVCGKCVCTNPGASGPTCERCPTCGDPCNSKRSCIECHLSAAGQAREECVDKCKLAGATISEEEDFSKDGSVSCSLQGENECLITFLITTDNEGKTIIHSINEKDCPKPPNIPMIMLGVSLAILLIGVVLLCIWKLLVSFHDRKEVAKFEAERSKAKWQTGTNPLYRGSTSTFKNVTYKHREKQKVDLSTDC
Procedure: The aim of this Example is to assess target engagement of the disclosed compounds to αVβ6 in participants with IPF using [^18F]FP-R01-MG-F2 PET/computerized tomography (CT) imaging.
This Example was conducted as an open-label, single-dose (60 mg, 120 mg, 240 mg or 320 mg) clinical trial evaluating αVβ6 receptor occupancy in the lungs, safety, and pharmacokinetics of Compound 5 in subjects with IPF. Knottin tracer uptake kinetics were compared pre- and post-dose of the disclosed compound, as measured by standardized uptake values (SUVs) and parameters estimated from kinetic modeling in regions-of-interest on dynamic [^18F]FP-R01-MG-F2 PET/CT scans. […] Receptor occupancy was estimated from the output of the two-compartment model (VT, the volume of labeled tissue) using standard equations and fitting algorithms, and corrections for VND (non-displaceable tracer binding). For example, in FIG. 8, the data points, shown as circles, are modeled by the following formula: […]
Five subjects with IPF were enrolled: Subject A received a single dose of 60 mg of the disclosed compound followed by a post-dose scan. Subject B received two doses of the disclosed compound separated by two weeks, 120 mg and 240 mg, each followed by a post-dose scan. Subject C received two doses of the disclosed compound separated by two weeks, 240 mg and 320 mg, each followed by a post-dose scan. Subject D received a single dose of 320 mg of the disclosed compound followed by a post-dose scan.

pSmad2/Smad2 = assay: Alveolar pSmad2/Smad2 in BAL, 80 mg and 160 mg QD (FIG. 10); format: in vivo, human; details: 80 mg and 160 mg QD (Part 1), p<0.0001
Procedure: Alveolar pSmad2/Smad2 percentage change from baseline at 24 h (Part 1: 80 mg and 160 mg). […] BAL—bronchoalveolar lavage; pSmad2/Smad2—ratio of phosphorylated Smad2 to total Smad2; QD—once daily.

COCCN(CCCCc1ccc2c(n1)NCCC2)CC[C@H](Nc1ncnc2ccccc12)C(=O)O [Compound 5, (S)-4-((2-methoxyethyl)(4-(5,6,7,8-tetrahydro-1,8-naphthyridin-2-yl)butyl)amino)-2-(quinazolin-4-ylamino)butanoic acid]
inhibition of cell adhesion in the IPF-derived lung fibroblasts [1]: substantially inhibited | accumulated new collagen (percentage of lung collagen containing 2H-labeled hydroxyproline) (lung collagen; 1× and 5× BID, FIG. 2D): dose-dependent reduction | total pulmonary collagen (μg of hydroxyproline) (lung collagen; 1×, […], 5× BID, FIG. 2E): reduction in total pulmonary collagen | total collagen area in second harmonic generation images (lung collagen; 1×, […], 5× BID, FIG. 2I): substantial, statistically significant dose-dependent reduction | increase in FVC relative to baseline ([2]; 80 mg QD, 12 weeks): +24.6 mL | treatment effect on FVC versus placebo at 12 weeks ([2]; 40, 80, 160 mg QD): dose-dependent treatment effect | proportion of patients experiencing a FVCpp decline of ≥10%, dose dependence ([2]; 40, 80, 160 mg QD, 12 weeks): Dose-dependent reduction; also recorded: dose-dependent decrease; also recorded: Dose dependent reduction | treatment effect with and without standard of care therapy ([2]; all Compound 5 dose groups, SoC nintedanib or pirfenidone): A treatment effect was observed; also recorded: evident with and without use of standard-of-care agents | decrease of the volume of distribution of the knottin radiotracer in the lungs (αVβ6; 60 mg dose): approximately 50% | decrease of the volume of distribution of the knottin radiotracer in the lungs (αVβ6; 240 and 320 mg doses): greater than 95% | Receptor occupancy (αVβ6; IPF lungs, at pharmacologically relevant plasma concentrations): > 95% | Vs (corrected for non-displaceable binding, VND = 0.66) (αVβ6; Subject A, 60 mg, post-dose scan (baseline Vs 2.47)): 1.18 | Vt (αVβ6; Subject A, 60 mg, post-dose scan (baseline Vt 3.13)): 1.84 | % DeltaVt (αVβ6; Subject B, 120 mg): 59.76% | Vs (corrected for non-displaceable binding, VND = 0.66) (αVβ6; Subject B, 120 mg, post-dose scan (baseline Vs 2.48)): 0.99 | Vt (αVβ6; Subject B, 120 mg, post-dose scan (baseline Vt 3.12)): 1.65 | Vs (corrected for non-displaceable binding, VND = 0.66) (αVβ6; Subject B, 240 mg, post-dose scan (baseline Vs 2.46)): 0.06 | Vt (αVβ6; Subject B, 240 mg, post-dose scan (baseline Vt 3.12)): 0.72 | Vs (corrected for non-displaceable binding, VND = 0.66) (αVβ6; Subject C, 240 mg, post-dose scan (baseline Vs 1.1)): 0,32 | Vt (αVβ6; Subject C, 240 mg, post-dose scan (baseline Vt 1.76)): 0.98 | Vs (corrected for non-displaceable binding, VND = 0.66) (αVβ6; Subject C, 320 mg, post-dose scan (baseline Vs 1.1)): 0.19 | Vt (αVβ6; Subject C, 320 mg, post-dose scan (baseline Vt 1.76)): 0.85 | Vs (corrected for non-displaceable binding, VND = 0.66) (αVβ6; Subject D, 320 mg, post-dose scan (baseline Vs 1.4)): 0.09 | Vt (αVβ6; Subject D, 320 mg, post-dose scan (baseline Vt 2.06)): 0.75 | concentration at which the exposure response saturates (αVβ6; measured drug exposure at 4 hours, approaching 100% receptor occupancy): about 100 nM | Alveolar pSmad2/Smad2 percentage change from baseline at 24 h vs. placebo (pSmad2/Smad2): statistically significant at both doses
